The results in this text go back to patent US20250215030A1, “STAT MODULATORS AND USES THEREOF” (Recludix Pharma, Inc., priority 2022, published 2025).

One test has as its target T1, pSTAT6 (pY641-STAT6) (Homo sapiens, UniProt P42226).
T1 construct: host or cells: cryopreserved PBMC
T1 sequence (P42226 1-847): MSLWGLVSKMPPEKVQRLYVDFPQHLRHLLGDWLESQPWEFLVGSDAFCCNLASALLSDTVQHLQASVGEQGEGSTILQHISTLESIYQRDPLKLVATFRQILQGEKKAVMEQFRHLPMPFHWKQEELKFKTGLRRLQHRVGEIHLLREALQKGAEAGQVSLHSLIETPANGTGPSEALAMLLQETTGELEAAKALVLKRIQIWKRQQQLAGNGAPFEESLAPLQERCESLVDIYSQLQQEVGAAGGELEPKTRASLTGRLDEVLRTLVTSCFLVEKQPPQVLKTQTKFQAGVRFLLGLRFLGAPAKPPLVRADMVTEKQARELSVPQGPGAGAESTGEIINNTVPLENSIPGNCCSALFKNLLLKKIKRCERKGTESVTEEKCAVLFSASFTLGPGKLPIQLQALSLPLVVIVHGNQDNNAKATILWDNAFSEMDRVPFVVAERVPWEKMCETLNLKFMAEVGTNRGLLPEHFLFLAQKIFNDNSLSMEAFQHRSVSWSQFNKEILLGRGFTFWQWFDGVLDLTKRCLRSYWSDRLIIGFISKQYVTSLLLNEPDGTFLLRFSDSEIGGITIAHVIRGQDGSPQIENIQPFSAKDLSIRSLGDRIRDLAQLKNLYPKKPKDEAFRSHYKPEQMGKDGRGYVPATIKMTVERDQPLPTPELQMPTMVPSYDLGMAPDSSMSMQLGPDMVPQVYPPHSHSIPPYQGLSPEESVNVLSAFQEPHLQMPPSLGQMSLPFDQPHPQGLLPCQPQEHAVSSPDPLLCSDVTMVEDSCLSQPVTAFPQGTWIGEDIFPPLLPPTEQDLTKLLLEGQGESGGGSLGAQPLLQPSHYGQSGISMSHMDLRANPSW
Kind of test: MSD-pSTAT-PBMC Assay (pSTAT6, IL-4 stimulated). The format is cell-based. The conditions noted are these: compound 3 hrs, then 1 ng/mL IL-4 for 10 min. A digest of the protocol:
(§1)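 Human PBMCs (50,000 cells/well for STAT3, 25,000 for STAT6) treated with compound 3 h, then stimulated 10 min with 10 ng/mL IL-6 or 1 ng/mL IL-4. Lysate pSTAT3 (pY705) or pSTAT6 (pY641) measured by MSD sandwich electrochemiluminescence. Signal minus unstimulated, normalized to DMSO; IC50 by variable-slope nonlinear regression.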

A further test has as its target T2, pSTAT3 (pY705-STAT3) (Homo sapiens, UniProt P40763).
T2 construct: host or cells: cryopreserved PBMC
Kind of test: MSD-pSTAT-PBMC Assay (pSTAT3, IL-6 stimulated). The settings on record: PBMC, compound 3 hrs, then 10 ng/mL IL-6 for 10 min; MSD pY705-STAT3; read-out: pSTAT3. The format is cell-based. A digest of the protocol:
as §1

T2 sequence (P40763 whole entry): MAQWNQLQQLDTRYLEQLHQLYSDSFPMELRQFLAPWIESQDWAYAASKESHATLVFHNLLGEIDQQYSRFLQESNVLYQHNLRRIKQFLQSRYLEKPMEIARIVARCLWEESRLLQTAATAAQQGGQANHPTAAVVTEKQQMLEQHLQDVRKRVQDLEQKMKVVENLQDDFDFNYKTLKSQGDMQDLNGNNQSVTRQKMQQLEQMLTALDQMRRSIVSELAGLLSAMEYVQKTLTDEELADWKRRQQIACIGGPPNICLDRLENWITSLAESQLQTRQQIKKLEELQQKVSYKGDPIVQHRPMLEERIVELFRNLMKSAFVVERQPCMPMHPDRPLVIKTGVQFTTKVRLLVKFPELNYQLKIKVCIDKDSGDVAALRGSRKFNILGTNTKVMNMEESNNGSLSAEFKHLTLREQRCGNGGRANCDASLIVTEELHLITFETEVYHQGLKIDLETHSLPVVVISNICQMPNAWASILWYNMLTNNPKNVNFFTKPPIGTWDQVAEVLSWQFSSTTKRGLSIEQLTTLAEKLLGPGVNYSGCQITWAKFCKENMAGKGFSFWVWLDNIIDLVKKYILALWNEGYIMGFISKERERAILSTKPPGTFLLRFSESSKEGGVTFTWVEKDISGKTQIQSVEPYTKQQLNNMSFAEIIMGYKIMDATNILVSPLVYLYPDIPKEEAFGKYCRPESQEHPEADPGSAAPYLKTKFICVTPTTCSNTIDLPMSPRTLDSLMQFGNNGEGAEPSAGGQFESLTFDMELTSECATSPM

On to `CC(C)CC(=O)SCCOP(=O)(OCCSC(=O)CC(C)C)C(F)(F)c1ccc2sc(C(=O)N[C@H]3C[C@H]4C[C@H]4C[C@H]4CC[C@@H](C(=O)N5CC(c6ncccn6)C5)N4C3=O)cc2c1` [Compound 225, S,S′-((((difluoro(2-(((3S,6S,7aR, 8aS,9aR)-5-oxo-3-(3-(pyrimidin-2-yl)azetidine-1-carbonyl)decahydro-1H-cyclopropa[d]pyrrolo[1,2-a]azocin-6-yl)carbamoyl)benzo[b]thiophen-5-yl)methyl)phosphoryl)bis(oxy))bis(ethane-2,1-diyl)) bis(3-methylbutane thioate)], for which the IC50 at pSTAT6 (pY641-STAT6) is 1000 to 3000 nM; on pSTAT3 (pY705-STAT3), below 100 nM.

In the case of `CC(C)(C)C(=O)SCCOP(=O)(Cc1ccc2sc(C(=O)N[C@H]3C[C@H]4C[C@H]4C[C@H]4CC[C@@H](C(=O)N5CC(c6cccnc6)C5)N4C3=O)cc2c1)OCCSC(=O)C(C)(C)C` [Compound 223, S,S′-(((((2-(((3S,6S,7aR, 8aS,9aR)-5-oxo-3-(3-(pyridin-3-yl)azetidine-1-carbonyl)decahydro-1H-cyclopropa[d]pyrrolo[1,2-a]azocin-6-yl)carbamoyl)benzo[b]thiophen-5-yl)methyl)phosphoryl)bis(oxy))bis(ethane-2,1-diyl)) bis(2,2-dimethyl-propanethioate)], the IC50 on pSTAT6 (pY641-STAT6) is above 3000 nM; at pSTAT3 (pY705-STAT3), 100 to 1000 nM.

For `CC(C)(CO)C(=O)SCCOP(=O)(Cc1ccc2sc(C(=O)N[C@H]3C[C@@H]4C[C@@H]4C[C@H]4CC[C@@H](C(=O)N5CC(C(=O)N6CCOCC6)C5)N4C3=O)cc2c1)OCCSC(=O)C(C)(C)CO` [Compound 133, S,S′-(((((2-(((3S,6S,7aS, 8aR,9aR)-3-(3-(morpholine-4-carbonyl)azetidine-1-carbonyl)-5-oxodecahydro-1H-cyclopropa[d]pyrrolo[1,2-a]azocin-6-yl)carbamoyl)benzo[b]thiophen-5-yl)methyl)phosphoryl)bis(oxy))bis(ethane-2,1-diyl)) bis(3-hydroxy-2,2-dimethyl-propane-thioate], the IC50 against pSTAT6 (pY641-STAT6) and at pSTAT3 (pY705-STAT3) was above 3000 nM throughout.

As to `CC(C)OC(=O)[C@H](Cc1ccccc1)NP(=O)(Oc1ccccc1)C(F)(F)c1ccc2sc(C(=O)N[C@H]3C[C@@H]4C[C@@H]4C[C@H]4CC[C@@H](C(=O)N5CC(C(=O)N6CCOCC6)C5)N4C3=O)cc2c1` (stereo partly drawn) [Compound 165, isopropyl ((difluoro(2-(((3S,6S,7aS, 8aR,9aR)-3-(3-(morpholine-4-carbonyl)azetidine-1-carbonyl)-5-oxodecahydro-1H-cyclopropa[d]pyrrolo[1,2-a]azocin-6-yl)carbamoyl)benzo[b]thiophen-5-yl)methyl) (phenoxy)phosphoryl)-L-phenylalaninate], the IC50 against pSTAT6 (pY641-STAT6) is above 3000 nM; on pSTAT3 (pY705-STAT3), 1000 to 3000 nM.

Take `COCCOC(=O)OCOP(=O)(OCOC(=O)OCCOC)C(F)(F)c1ccc2sc(C(=O)N[C@H]3C[C@@H]4C[C@@H]4C[C@H]4CC[C@@H](C(=O)N5CC(C(=O)N6CCOCC6)C5)N4C3=O)cc2c1` [Compound 172, (((difluoro(2-(((3S,6S,7aS, 8aR,9aR)-3-(3-(morpholine-4-carbonyl)azetidine-1-carbonyl)-5-oxodecahydro-1H-cyclopropa [d]pyrrolo[1,2-a]azocin-6-yl)carbamoyl)benzo[b]thiophen-5-yl)methyl)phosphoryl)bis(oxy)) bis(methylene) bis(2-methoxyethyl) bis(carbonate)]: the figures for the IC50 on pSTAT6 (pY641-STAT6) and at pSTAT3 (pY705-STAT3) were above 3000 nM and 100 to 1000 nM, respectively.

As for `CC(C)(CO)C(=O)SCCOP(=O)(OCCSC(=O)C(C)(C)CO)C(F)(F)c1ccc2sc(C(=O)N[C@H]3C[C@@H]4C[C@@H]4C[C@H]4CC[C@@H](C(=O)N5CC(C(=O)N6CCOCC6)C5)N4C3=O)cc2c1` [Compound 131, S,S′-((((difluoro(2-(((3S,6S,7aS, 8aR,9aR)-3-(3-(morpholine-4-carbonyl)azetidine-1-carbonyl)-5-oxodecahydro-1H-cyclopropa[d]pyrrolo[1,2-a]azocin-6-yl)carbamoyl)benzo[b]thiophen-5-yl)methyl)phosphoryl)bis(oxy))bis(ethane-2,1-diyl)) bis(3-hydroxy-2,2-dimethyl-propane-thioate)], the IC50 against pSTAT6 (pY641-STAT6) is above 3000 nM; at pSTAT3 (pY705-STAT3) it was 100 to 1000 nM.

With `CC(C)(C)C(=O)OCOP(=O)(OCOC(=O)C(C)(C)C)C(F)(F)c1ccc2sc(C(=O)N[C@H]3C[C@@H]4C[C@@H]4C[C@H]4CC[C@@H](C(=O)N5CC(C(=O)N6CCOCC6)C5)N4C3=O)cc2c1` [Compound 145, (((difluoro(2-(((3S,6S,7aS, 8aR,9aR)-3-(3-(morpholine-4-carbonyl)azetidine-1-carbonyl)-5-oxodecahydro-1H-cyclopropa [d]pyrrolo[1,2-a]azocin-6-yl)carbamoyl)benzo[b]thiophen-5-yl)methyl)phosphoryl)bis(oxy)) bis(methylene) bis(2,2-dimethyl-propanoate)], the IC50 on pSTAT6 (pY641-STAT6) is 1000 to 3000 nM; at pSTAT3 (pY705-STAT3) it was below 100 nM.

For `CC(C)(C)C(=O)OCOP(=O)(OCOC(=O)C(C)(C)C)C(F)(F)c1ccc2sc(C(=O)N[C@H]3C[C@H]4C[C@H]4C[C@H]4CC[C@@H](C(=O)N5C[C@@H](C#N)[C@H](c6ccccc6)C5)N4C3=O)cc2c1` [Compound 140, ((((2-(((3S,6S,7aR, 8aS,9aR)-3-((3S,4R)-3-cyano-4-phenyl-pyrrolidine-1-carbonyl)-5-oxodecahydro-1H-cyclopropa [d]pyrrolo[1,2-a]azocin-6-yl)carbamoyl)benzo[b]thiophen-5-yl)difluoromethyl)phosphoryl)bis(oxy)) bis(methylene) bis(2,2-dimethylpro-panoate)], the IC50 against pSTAT6 (pY641-STAT6) and on pSTAT3 (pY705-STAT3) was below 100 nM in each case.

Take `CC(C)(C)C(=O)OCOP(=O)(OCOC(=O)C(C)(C)C)C(F)(F)c1ccc2sc(C(=O)N[C@H]3C[C@H]4C[C@H]4C[C@H]4CC[C@@H](C(=O)N[C@@H]5CCN(c6cccnc6)C5)N4C3=O)cc2c1` [Compound 213, (((difluoro(2-(((3S,6S,7aR, 8aS,9aR)-5-oxo-3-(((R)-1-(pyridin-3-yl)pyrrolidin-3-yl)carbamoyl)decahydro-1H-cyclopropa[d]pyrrolo[1,2-a]azocin-6-yl)carbamoyl)benzo[b]thiophen-5-yl)methyl)phosphoryl)bis(oxy)) bis(methylene) bis(2,2-dimethyl-propanoate)]: the IC50 on pSTAT6 (pY641-STAT6) is above 3000 nM; at pSTAT3 (pY705-STAT3) it was 100 to 1000 nM.

Turning to `CC(C)(C)C(=O)OCOP(=O)(Cc1ccc2sc(C(=O)N[C@H]3C[C@@H]4C[C@@H]4C[C@H]4CC[C@@H](C(=O)N5CC(C(=O)N6CCOCC6)C5)N4C3=O)cc2c1)OCOC(=O)C(C)(C)C` [Compound 150, ((((2-(((3S,6S, 7aS,8aR,9aR)-3-(3-morpholine-4-carbonyl)azetidine-1-carbonyl)-5-oxodecahydro-1H-cyclopropa [d]pyrrolo[1,2-a]azocin-6-yl)carbamoyl)benzo [b]thiophen-5-yl)methyl)phosphoryl) bis(oxy)) bis(methylene) bis(2,2-dimethyl-propanoate)], the IC50 on pSTAT6 (pY641-STAT6) is above 3000 nM; at pSTAT3 (pY705-STAT3), below 100 nM.
